{"source": "patent US20120295804A1", "about": "“Compositions and Methods for Diagnosis and Treatment of Breast Cancer” (University of Medicine and Dentistry of New Jersey, priority 2011, published 2012)", "key": {"[1]": {"system": "GJIC between Oct4^hi BCCs and BM stroma", "test": "GJIC in co-cultures of Oct4^hi BCCs and bone marrow stroma with or without 1-octanol", "assay_type": "cell-based", "settings": "300 μM 1-octanol", "text": "Connexin (Cx) expression was studied using plasma membrane extracts from unsorted, Oct4^hi, Oct4^med and Oct4^− BCCs. […] It was next determined if the higher expression of connexins in BCCs could provide the cells with an advantage to form GJIC, in co-cultures of Oct4^hi BCCs and BM stroma. […] As expected, in the presence of the GJIC inhibitor 1-octanol, the intensity of Cx43 was reduced. GJIC was studied via dye transfer between BCCs and stroma using CFDA-SE-labeled Oct4^hi BCCs, as described previously (Lim, P. K. et al. 2011. Cancer Res. 71:1550-1560). Dye transfer into stroma was blunted by 1-octanol. Finally, the total number of BCCs showing dye transfer was counted in order to quantify functional GJIC.\nGJIC was assessed by CFDA-SE dye exchange from BCCs to stroma in co-cultures, as described previously (Ramkisson, S. H. et al. 2007. Cancer Res. 67:1653-1659). Briefly, BCCs and stroma were co-cultured at equal ratios in α-MEM with 10% FCS, in the presence or absence of 300 μM 1-octanol. CFDA-SE dye transfer was assessed on an EVOS fl fluorescence imager (AMG Micro, Bothell, Wash.)."}, "Oct4^− BCCs": {"system": "Oct4^− BCCs", "test": "Chemical induction of GFP in Oct4(−) breast cancer cells stably transfected with pEGFP1-Oct3/4", "assay_type": "cell-based", "settings": "2.7 μM BIX01294, 24 h, pEGFP1-Oct3/4 stable transfectants", "text": "Therefore, different BCC subsets were selected based on Oct4 expression. To do this, MDA-MB-231 and T47D were stably transfected with an Oct4 reporter vector, pEGFP1-Oct3/4 (Gerrard, L. et al. 2005. Stem Cells 23:124-133). The transfected cells were sorted into three subsets based on GFP expression levels. The top 5% of GFP expressers were designated Oct4^hi and the lowest 5%, Oct4^−. The population between the extremes were designated Oct4^med. GFP intensities were validated for correlation with Oct4 protein by intracellular flow cytometry of pEGFP1-Oct3/4 transfectants. The Oct4^− population was similar to isotype control. In contrast, the mean fluorescence intensity (MFI) of cells labeled with APC-anti-Oct4 correlated with GFP intensities.\nAt 40-50% confluence stably transfected BCCs were treated with G9a histone methyltransferase inhibitor, [2-(Hexahydro-4-methyl-1H-1,4-diazepin-1-yl)-6,7-dimethoxy-N-[1-(phenylmethyl)-4-piperidinyl]4-quinazolinamine] (BIX01294, Enzo Life Sciences, Farmingdale, N.Y.). BIX01294 and similar chemicals can induce Oct4 in negative cells, in reprogramming (Huangfu, D. et al. 2008. Nat. Biotech. 26:795-797; Shi, Y. et al. 2008. Cell Stem Cell 3:568-574). Cells were treated with 2.7 μM BIX01294. After 24 h, images were taken by fluorescence microscopy. Control cells were untreated or treated with vehicle (dimethyl sulphoxide, DMSO)."}, "Oct4^hi MDA-MB-231": {"system": "Oct4^hi MDA-MB-231", "test": "Carboplatin resistance of Oct4^hi BCCs in bone marrow (femur endosteum)", "assay_type": "in vivo, mice", "settings": "10^3 Oct4^hi MDA-MB-231 i.v.; carboplatin 50 mg/kg i.p. at 3-day intervals; femurs examined one week after second injection", "procedure": "It was then determined if Oct4^hi BCCs, at sites of distant metastasis, such as bone marrow, could resist carboplatin treatment. Bone marrow was selected for study because it is well-established that BCCs can attain dormancy in this organ, close to the endosteum (Lim, P. K. et al. 2011. Cancer Res. 71:1550-1560; Rao, G. et al. 2004. Cancer Res. 64:2874-2881). Mice were injected intravenously with 10^3 Oct4^hi MDA-MB-231. After 1 day, carboplatin was injected i.p. at 3-day intervals. One week after the second injection, femurs were decalcified, processed, and examined for GFP^+ cells. […] Similar cells were not detected in the cellular regions of the marrow, which were flushed from femurs prior to the analyses of the endosteal regions. Mice were injected intravenously with 10^3 BCCs, stably transfected with pEGFP1-Oct3/4. After 24 hours, mice were injected i.p. with carboplatin (50 mg/kg), followed by a second dose after 3 days. One week after the final injection of carboplatin, mice were euthanized, and the femurs were removed. Femurs were rinsed and the cells flushed using a 27 gauge needle attached to a syringe with PBS to remove the cells within the central region of the cavity. After this, the femurs were fixed overnight in 4% formaldehyde at 4° C. […] Slides were examined with an EVOS fl fluorescence imager."}, "unsorted BCCs": {"system": "unsorted BCCs", "test": "Carboplatin response of subcutaneous tumors from unsorted BCCs", "assay_type": "in vivo, nude BALB/c mice", "settings": "50 mg/kg i.p. twice at 3-day intervals", "procedure": "(§1) Both triple-negative MDA-MB-231 and triple-positive T47D are expected to respond to carboplatin treatment, a drug which acts through a mechanism independent of hormone receptor status. Thus, the responsiveness to carboplatin was investigated in Oct4^hi cells from both cells lines. Tumors were injected into the dorsal flanks of mice as before. When the tumors were 0.5 cm^3 the mice were injected with carboplatin intra-peritoneally (i.p.).\n(§2) Serial passage of different BCC subsets was performed by injecting BCCs in dorsal flanks of mice. The cells were resuspended in PBS and then mixed with matrigel at 1:1 ratio in 0.2 mL total volume. The cells were injected at different numbers, but in a constant volume to study dose effects on the time for tumor growth. Parallel analyses were performed with unsorted BCCs. Tumors were monitored daily for 30 days and measured in two dimensions with a caliper and volume was calculated using the following: formula V=πr^2h, where r=radius and h=height. Subsequent passages occurred by sorting the same cell subset (top 5% highest GFP) and then repeating the injection as above.\n(§3) Carboplatin responses to tumor growth were assessed by subcutaneous injection of 200 Oct4^hi BCCs in matrigel in the dorsal flank. For unsorted BCCs, 10^6 cells were injected. […] Tumor sizes were recorded every 2 days with a caliper, as described for serial passage."}, "Oct4^hi BCCs": {"system": "Oct4^hi BCCs", "test": "Carboplatin response of subcutaneous tumors from Oct4^hi BCCs", "assay_type": "in vivo, nude BALB/c mice", "settings": "50 mg/kg i.p. twice at 3-day intervals, same tumor size as unsorted BCCs", "procedure": "as §1, §2, §3"}, "[2]": {"system": "Oct4^hi BCCs (MDA-MB-231 and T47D)", "test": "Hoechst 33342 dye exclusion (side population) in the presence or absence of verapamil", "assay_type": "cell-based", "settings": "400 μM verapamil, 5 μg/mL Hoechst 33342, Oct4^hi population", "procedure": "FIG. 7 depicts results of experiments of dye retention in BCC subsets. Oct4^hi BCCs were labeled with Hoechst 33342 (5 μg/mL), in the presence or absence of 400 μM verapamil. Propidium iodide-negative cells were gated based on GFP intensity. The cells were analyzed on Hoechst Blue and Hoechst Red filters. Side population cells that were Hoechst negative (circled) were compared in the two experimental conditions. The figure represents five different experiments, with MDA-MB-231 and T47D.\nExperiments were then performed to determine if drug resistance genes played any role in the differentiation of BCC subsets. […] Oct4^hi cells were incubated in the presence or absence of verapamil, which inhibits multi-drug resistance transporters, and then dye exclusion was tested in four different experiments. Oct4^hi, Oct4^med and Oct4^− cells were tested. […] Only few Oct4^med (FIG. 8) and Oct4^− cells (FIG. 9) excluded the dye.\nSide population analysis of the pEGFP1-Oct4 stable transfectants was performed using the LSR II (BD Biosciences). […] Optimal titrations and conditions were determined to be 5 μg/ml Hoechst 33342 (90 min incubation at 37° C.) and 400 μM verapamil (10 min pre-incubation). […] The cells between the two extremes were also analyzed (Oct4^med)."}}, "data": [{"smiles": "CCCCCCCCO", "note": "[1-octanol]", "values": [{"measurement": "CFDA-SE dye transfer into stroma", "setting": "[1]; CFDA-SE-labeled Oct4^hi BCCs", "value": "blunted"}, {"measurement": "intensity of Cx43 immunofluorescence", "setting": "[1]; co-cultures of Oct4^hi BCCs and BM stroma", "value": "reduced"}]}, {"smiles": "COc1cc2nc(N3CCCN(C)CC3)nc(NC3CCN(Cc4ccccc4)CC3)c2cc1OC", "note": "[BIX01294, 2-(Hexahydro-4-methyl-1H-1,4-diazepin-1-yl)-6,7-dimethoxy-N-[1-(phenylmethyl)-4-piperidinyl]4-quinazolinamine]", "values": [{"measurement": "Oct4^− BCCs reverted to high GFP expression", "setting": "Oct4^− BCCs", "value": "92.5%±4.4%"}]}, {"smiles": "N.N.O=C([O-])C1(C(=O)[O-])CCC1.[Pt+2]", "note": "[carboplatin]", "values": [{"measurement": "GFP^+ BCCs in femur after carboplatin", "setting": "Oct4^hi MDA-MB-231", "value": "drug resistance in GFP^+ BCCs close to the endosteum of bone marrow"}, {"measurement": "tumors eight days after treatment with carboplatin", "setting": "unsorted BCCs; mice injected with unsorted BCCs", "value": "tumors were undetectable"}, {"measurement": "tumor change after the second injection of carboplatin", "setting": "unsorted BCCs; tumors 0.5 cm^3 at start, vs Oct4^hi and untreated unsorted BCC", "value": "significant (p<0.05) reduction"}, {"measurement": "tumors after carboplatin treatment", "setting": "Oct4^hi BCCs", "value": "retained palpable tumors"}]}, {"smiles": "COc1ccc(CCN(C)CCCC(C#N)(c2ccc(OC)c(OC)c2)C(C)C)cc1OC", "note": "(centres unmarked) [verapamil]", "values": [{"measurement": "difference in Hoechst dye retention with verapamil", "setting": "[2]", "value": 3, "unit": "fold"}]}]}
